# pIC50: −log10 of the molar value.
# Target: PI3Kδ (PI3Kd) (Homo sapiens (Human), UniProt O00329)
# Assay: PI3K HTRF enzymatic inhibition assay (cell-free), delta isoform
# Settings: read-out: IC50 PI3Kd HTRF; recombinant PI3K delta, [ATP] 15 μM, [PIP2] 2 μM, 30 min preincubation
# Sequence of PI3Kδ (PI3Kd) (O00329 whole entry, canonical isoform): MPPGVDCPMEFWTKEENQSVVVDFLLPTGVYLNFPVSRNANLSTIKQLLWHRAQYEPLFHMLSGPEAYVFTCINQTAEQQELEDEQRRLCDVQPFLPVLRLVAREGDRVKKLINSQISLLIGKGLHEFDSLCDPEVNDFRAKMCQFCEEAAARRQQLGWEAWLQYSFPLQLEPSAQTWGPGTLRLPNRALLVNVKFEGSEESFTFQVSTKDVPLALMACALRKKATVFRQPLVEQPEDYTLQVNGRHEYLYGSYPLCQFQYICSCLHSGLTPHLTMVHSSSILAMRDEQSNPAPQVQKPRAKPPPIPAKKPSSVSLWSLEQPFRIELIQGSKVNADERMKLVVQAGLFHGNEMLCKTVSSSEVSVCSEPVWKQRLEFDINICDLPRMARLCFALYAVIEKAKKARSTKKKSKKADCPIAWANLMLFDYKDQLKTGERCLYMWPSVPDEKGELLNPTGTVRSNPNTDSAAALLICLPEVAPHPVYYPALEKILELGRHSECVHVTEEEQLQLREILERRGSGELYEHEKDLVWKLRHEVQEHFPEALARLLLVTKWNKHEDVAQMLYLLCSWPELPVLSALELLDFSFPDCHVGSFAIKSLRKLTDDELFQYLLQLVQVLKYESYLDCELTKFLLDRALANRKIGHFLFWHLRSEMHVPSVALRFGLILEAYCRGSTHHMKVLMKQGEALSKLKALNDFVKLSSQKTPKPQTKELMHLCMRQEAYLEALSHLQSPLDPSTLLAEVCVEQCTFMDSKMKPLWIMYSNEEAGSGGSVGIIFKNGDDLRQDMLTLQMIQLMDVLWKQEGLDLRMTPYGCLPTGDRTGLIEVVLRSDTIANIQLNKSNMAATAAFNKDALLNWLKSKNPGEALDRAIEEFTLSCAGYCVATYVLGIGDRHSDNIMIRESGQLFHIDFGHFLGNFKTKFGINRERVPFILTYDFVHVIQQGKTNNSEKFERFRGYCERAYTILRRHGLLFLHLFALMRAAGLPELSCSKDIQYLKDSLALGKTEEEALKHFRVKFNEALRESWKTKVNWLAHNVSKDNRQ
# Sequence of PI3Kδ (PI3Kd) (P27986 whole entry partner, canonical isoform): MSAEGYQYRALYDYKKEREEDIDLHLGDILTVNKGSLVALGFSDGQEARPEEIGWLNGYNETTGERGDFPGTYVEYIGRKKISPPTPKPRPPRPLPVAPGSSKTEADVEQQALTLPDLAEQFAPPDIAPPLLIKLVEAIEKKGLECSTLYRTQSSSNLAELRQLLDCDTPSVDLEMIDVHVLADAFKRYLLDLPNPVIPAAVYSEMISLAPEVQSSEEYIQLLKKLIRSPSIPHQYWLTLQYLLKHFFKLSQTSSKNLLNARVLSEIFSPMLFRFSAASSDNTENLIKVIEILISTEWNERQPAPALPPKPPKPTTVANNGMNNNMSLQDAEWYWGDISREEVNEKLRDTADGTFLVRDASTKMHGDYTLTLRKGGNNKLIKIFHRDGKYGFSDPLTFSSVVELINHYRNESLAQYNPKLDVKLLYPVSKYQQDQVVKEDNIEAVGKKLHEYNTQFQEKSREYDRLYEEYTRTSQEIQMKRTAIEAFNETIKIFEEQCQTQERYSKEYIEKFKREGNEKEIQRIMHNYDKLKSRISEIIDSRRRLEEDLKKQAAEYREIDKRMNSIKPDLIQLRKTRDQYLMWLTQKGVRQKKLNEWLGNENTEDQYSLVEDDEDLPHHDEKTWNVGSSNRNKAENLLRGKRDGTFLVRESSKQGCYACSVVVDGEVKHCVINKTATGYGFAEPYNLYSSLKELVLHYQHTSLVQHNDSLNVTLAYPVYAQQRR
row,Compound,pIC50
1,"Cc1ccn2nc([C@H](C)Nc3ncnc(N)c3-c3cc(O)c4ccn(S(=O)(=O)c5ccc(O)cc5F)c4c3)n(-c3ccccc3)c(=O)c12 [Example 171, (S)-2-(1-((6-Amino-5-(1-((2-fluoro-4-hydroxyphenyl)sulfonyl)-4-hydroxy-1H-indol-6-yl)pyrimidin-4-yl)amino)ethyl)-5-methyl-3-phenylpyrrolo[2,1-f][1,2,4]triazin-4(3H)-one]",8.30
2,"Cc1ccn2nc([C@H](C)Nc3ncnc(N)c3-c3cnn(CCO)c3)n(-c3ccccc3)c(=O)c12 [Example 116, (S)-2-(1-((6-Amino-5-(1-(2-hydroxyethyl)-1H-pyrazol-4-yl)pyrimidin-4-yl)amino)ethyl)-5-methyl-3-phenylpyrrolo[2,1-f][1,2,4]triazin-4(3H)-one]",9.00
3,"Cc1ccn2nc([C@H](C)Nc3ncnc4[nH]cc(-c5cc(C(F)(F)F)nn5C)c34)n(-c3ccccc3)c(=O)c12 [Example 151, (S)-5-Methyl-2-(1-((5-(1-methyl-3-(trifluoromethyl)-1H-pyrazol-5-yl)-7H-pyrrolo[2,3-d]pyrimidin-4-yl)amino)ethyl)-3-phenylpyrrolo[2,1-f][1,2,4]triazin-4(3H)-one]",8.30
4,"Cc1ccn2nc([C@H](C)Nc3ncnc4[nH]cc(-c5ccc(NS(=O)(=O)N(C)C)cc5O)c34)n(-c3ccccc3)c(=O)c12 [Example 239, N′-[3-Hydroxy-4-(4-{[(1S)-1-(5-methyl-4-oxo-3-phenyl-3,4-dihydropyrrolo[2,1-f][1,2,4]triazin-2-yl)ethyl]amino}-7H-pyrrolo[2,3-d]pyrimidin-5-yl)phenyl]-N,N-dimethylsulfamide]",8.70
5,"COc1cccc(Cc2ccn3nc([C@H](C)Nc4ncnc(N)c4C#N)n(-c4ccccc4)c(=O)c23)c1 [Example 40, (S)-4-Amino-6-((1-(5-(3-methoxybenzyl)-4-oxo-3-phenyl-3,4-dihydropyrrolo[2,1-f][1,2,4]triazin-2-yl)ethyl)amino)pyrimidine-5-carbonitrile]",7.52
6,"C[C@H](Nc1ncnc(N)c1-c1nnn[nH]1)c1nn2cccc2c(=O)n1-c1ccccc1 [Example 1, (S)-2-(1-(6-Amino-5-(1H-tetrazol-5-yl)pyrimidin-4-ylamino)ethyl)-3-phenylpyrrolo[1,2-f][1,2,4]triazin-4(3H)-one]",7.82
7,"Cc1ccn2nc([C@H](C)Nc3ncnc(N)c3-c3cnc(N)nc3)n(-c3ccccc3)c(=O)c12 [Example 16, (S)-2-(1-((2′,6-Diamino-[5,5′-bipyrimidin]-4-yl)amino)ethyl)-5-methyl-3-phenylpyrrolo[2,1-f][1,2,4]triazin-4(3H)-one]",8.30
8,"(S)—N-(6-(4-Amino-6-((1-(5-methyl-4-oxo-3-phenyl-3,4-dihydropyrrolo[2,1-f][1,2,4]triazin-2-yl)ethyl)amino)pyrimidin-5-yl)-1H-indol-4-yl)-4-hydroxybenzenesulfonamide [Example 190]",9.10
9,"N#Cc1ccn2nc([C@H](CCOCc3ccccc3)Nc3ncnc(N)c3-c3cc(O)cc(F)c3)n(-c3cc(F)cc(F)c3)c(=O)c12 [Example 24, (S)-2-(1-((6-Amino-5-(3-fluoro-5-hydroxyphenyl)pyrimidin-4-yl)amino)-3-(benzyloxy)propyl)-3-(3,5-difluorophenyl)-4-oxo-3,4-dihydropyrrolo[2,1-f][1,2,4]triazine-5-carbonitrile]",7.01
10,Cc1ccn2nc([C@H](C)Nc3ncnc4[nH]cc(-c5cccc6[nH]ncc56)c34)n(-c3ccccc3)c(=O)c12 [Example 52],9.00
11,"Cc1ccn2nc([C@H](C)Nc3ncnc4[nH]cc(-c5ccn(CC(C)(C)CO)n5)c34)n(-c3ccccc3)c(=O)c12 [Example 155, (S)-2-(1-((5-(1-(3-Hydroxy-2,2-dimethylpropyl)-1H-pyrazol-3-yl)-7H-pyrrolo[2,3-d]pyrimidin-4-yl)amino)ethyl)-5-methyl-3-phenylpyrrolo[2,1-f][1,2,4]triazin-4(3H)-one]",9.52
12,"CC(C)N1CCN(C(=O)CCCC#Cc2ccn3nc([C@H](C)Nc4ncnc(N)c4C#N)n(-c4ccccc4)c(=O)c23)CC1 [Example 128, (S)-4-Amino-6-((1-(5-(6-(4-isopropylpiperazin-1-yl)-6-oxohex-1-yn-1-yl)-4-oxo-3-phenyl-3,4-dihydropyrrolo[2,1-f][1,2,4]triazin-2-yl)ethyl)amino)pyrimidine-5-carbonitrile]",8.40
13,"Cc1ccn2nc([C@H](C)Nc3ncnc4sccc34)n(-c3ccccc3)c(=O)c12 [Example 59, (S)-5-Methyl-3-phenyl-2-(1-(thieno[2,3-d]pyrimidin-4-ylamino)ethyl)pyrrolo[2,1-f][1,2,4]triazin-4(3H)-one]",8.00
14,"Cc1ccn2nc([C@H](C)Nc3ncnc4[nH]cc(-c5ccn(CC(F)(F)F)n5)c34)n(-c3ccccc3)c(=O)c12 [Example 145, (S)-5-Methyl-3-phenyl-2-(1-((5-(1-(2,2,2-trifluoroethyl)-1H-pyrazol-3-yl)-7H-pyrrolo[2,3-d]pyrimidin-4-yl)amino)ethyl)pyrrolo[2,1-f][1,2,4]triazin-4(3H)-one]",9.70
15,"Cc1ccn2nc([C@H](C)Nc3ncnc4[nH]cc(-c5cc(O)cc(NC(N)=O)c5)c34)n(-c3ccccc3)c(=O)c12 [Example 175, (S)-1-(3-Hydroxy-5-(4-((1-(5-methyl-4-oxo-3-phenyl-3,4-dihydropyrrolo[2,1-f][1,2,4]triazin-2-yl)ethyl)amino)-7H-pyrrolo[2,3-d]pyrimidin-5-yl)phenyl)urea]",9.52
16,"N#Cc1c(N)ncnc1N[C@@H](CCOCc1ccccc1)c1nn2ccc(C#N)c2c(=O)n1-c1cc(F)cc(F)c1 [Example 17, (S)-2-(1-((6-Amino-5-cyanopyrimidin-4-yl)amino)-3-(benzyloxy)propyl)-3-(3,5-difluorophenyl)-4-oxo-3,4-dihydropyrrolo[2,1-f][1,2,4]triazine-5-carbonitrile]",8.22
17,"C[C@H](Nc1ncnc(N)c1-c1nccs1)c1nn2cccc2c(=O)n1-c1ccccc1 [Example 2, (S)-2-(1-((6-Amino-5-(thiazol-2-yl)pyrimidin-4-yl)amino)ethyl)-3-phenylpyrrolo[2,1-f][1,2,4]triazin-4(3H)-one]",7.66
18,"Cc1ccn2nc([C@H](C)Nc3ncnc(N)c3-c3cncc(C(F)(F)F)c3)n(-c3ccccc3)c(=O)c12 [Example 114, (S)-2-(1-((6-Amino-5-(5-(trifluoromethyl)pyridin-3-yl)pyrimidin-4-yl)amino)ethyl)-5-methyl-3-phenylpyrrolo[2,1-f][1,2,4]triazin-4(3H)-one]",9.30
19,"Cc1ccn2nc([C@H](C)Nc3ncnc(N)c3-c3ccc(N4CCNCC4)cc3)n(-c3ccccc3)c(=O)c12 [Example 162, (S)-2-(1-((6-Amino-5-(4-(piperazin-1-yl)phenyl)pyrimidin-4-yl)amino)ethyl)-5-methyl-3-phenylpyrrolo[2,1-f][1,2,4]triazin-4(3H)-one]",6.88
20,"CCNc1ncc(-c2c(N)ncnc2N[C@@H](C)c2nn3ccc(C)c3c(=O)n2-c2ccccc2)cc1NS(=O)(=O)c1ccc(O)cc1 [Example 218, (S)—N-(5-(4-Amino-6-((1-(5-methyl-4-oxo-3-phenyl-3,4-dihydropyrrolo[2,1-f][1,2,4]triazin-2-yl)ethyl)amino)pyrimidin-5-yl)-2-(ethylamino)pyridin-3-yl)-4-hydroxybenzenesulfonamide]",8.30
